What follows are compounds tested on Human peripheral blood mononuclear cells (PBMCs) as Responder cells, RPMI 1788 Stimulator cells (assay: Mixed Lymphocyte Reaction (MLR) test). Settings: Homo sapiens, RPMI-1788, lowest concentration giving 50% inhibition of the MLR; 6 days coculture, 3H-thymidine incorporation.
Format: cell-based
Protocol: Human peripheral blood mononuclear cells (PBMCs) were isolated from buffy coats, obtained from healthy blood donors by Ficoll (Lymphoprep, Axis-Shield PoC AS, Oslo, Norway) density-gradient centrifugation. The cells at the Ficoll-plasma interface were washed three times and used as “Responder” cells. RPMI 1788 (ATCC, N^o CCL-156) cells were treated with mitomycin C (Kyowa, Nycomed, Brussel, Belgium) and used as “Stimulator” cells. Responder cells (0.12×10^6), Stimulator cells (0.045×10^6) and compounds (in different concentrations) were cocultured for 6 days in RPMI 1640 medium (BioWhittaker, Lonza, Belgium) supplemented with 10% fetal calf serum, 100 U/ml Geneticin (Gibco, LifeTechnologies, UK). Cells were cultured in triplicate in flat-bottomed 96-well microtiter tissue culture plates (TTP, Switzerland). After 5 days, cells were pulsed with 1 μCi of methyl-^3H thymidine (MP Biomedicals, USA), harvested 18 h later on glass filter paper and counted. Proliferation values were expressed as counts per minute (cpm), and converted to % inhibition with respect to a blank MLR test (identical but without added compound). […]

| Compound | IC50 [nM] |
| --- | --- |
| COc1ccc(OCC(=O)N2CCN(c3nc(N)nc4sc(CCc5ccc(Br)cc5)nc34)CC2)cc1 [Example 298, 1-(4-(5-amino-2-(4-bromophenethyl)thiazolo[5,4-d]pyrimidin-7-yl)piperazin-1-yl)-2-(4-methoxyphenoxy)ethanone] | 1190 |
| Nc1nc(N2CCN(C(=O)CCc3ccc(Br)cc3)CC2)c2nc(CCc3ccc(F)cc3)sc2n1 [Example 223, 1-(4-(5-amino-2-(4-fluorophenethyl)thiazolo[5,4-d]pyrimidin-7-yl)piperazin-1-yl)-3-(4-bromophenyl)propan-1-one] | > 10000 |
| NC(=O)c1nc(N2CCN(C(=O)COc3ccc(Cl)cc3)CC2)c2cc(-c3ccc(F)cc3)sc2n1 [Example 355, 4-(4-(2-(4-chlorophenoxy)acetyl)piperazin-1-yl)-6-(4-fluorophenyl)thieno[2,3-d]pyrimidine-2-carboxamide] | > 10000 |
| Nc1nc(N2CCN(C(=O)C3CCCCC3)CC2)c2cc(-c3ccc(F)cc3)sc2n1 [Example 345, (4-(2-amino-6-(4-fluorophenyl)thieno[2,3-d]pyrimidin-4-yl)piperazin-1-yl)(cyclohexyl)methanone] | > 10000 |
| Nc1nc(NC2CCCN(C(=O)OCc3ccccc3)C2)c2nc(CCc3ccc(F)cc3)sc2n1 (stereo not shown) [Example 145, 5-amino-2-[2-(4-fluorophenyl)ethyl]-7-(1-benzyloxycarbonylpiperidin-3-ylamino)-thiazolo[5,4-d]pyrimidine] | 4350 |
| Nc1nc(N2CCC(C(=O)c3ccccc3)CC2)c2nc(CCc3ccc(F)cc3)sc2n1 [Example 148, 5-amino-2-[2-(4-fluorophenyl)ethyl]-7-(4-benzoylpiperidine-1-yl)-thiazolo[5,4-d]pyrimidine] | 2610 |
| Cc1ccc(CCc2nc3c(N4CCN(C(=O)COc5ccc(Cl)cc5)CC4)nc(N)nc3s2)cc1 [Example 260, 1-(4-(5-amino-2-(4-methylphenethyl)thiazolo[5,4-d]pyrimidin-7-yl)piperazin-1-yl)-2-(4-chlorophenoxy)ethanone] | 820 |
| CCCCCc1nc2c(N3CCN(C(=O)COc4ccc(Cl)cc4)CC3)nc(N)nc2s1 [Example 297, 1-(4-(5-amino-2-pentylthiazolo[5,4-d]pyrimidin-7-yl)piperazin-1-yl)-2-(4-chlorophenoxy)ethanone] | 690 |
| COc1ccc(OCC(=O)N2CCN(c3nc(N)nc4sc(-c5ccccc5)nc34)CC2)cc1 [Example 208, 1-(4-(5-amino-2-phenylthiazolo[5,4-d]pyrimidin-7-yl)piperazin-1-yl)-2-(4-methoxyphenoxy)ethanone] | 42 |
| Nc1nc(N2CCN(C(=O)c3ccc(Cl)cc3)CC2)c2nc(CCc3ccc(F)cc3)sc2n1 [Example 135, 5-amino-2-[2-(4-fluorophenyl)ethyl]-7-[4-(4-chlorobenzoyl)piperazin-1-yl]-thiazolo[5,4-d]pyrimidine] | > 10000 |
| Nc1nc(N2CCN(C(=O)COc3ccc(Cl)cc3)CC2)c2nc(CCOc3ccc(F)cc3)sc2n1 [Example 48, 1-(4-(5-amino-2-(2-(4-fluorophenoxy)ethyl)thiazolo[5,4-d]pyrimidin-7-yl)piperazin-1-yl)-2-(4-chlorophenoxy)ethanone] | 3540 |
| Nc1nc(N2CCN(C(=O)c3ccc(Cl)cc3)CC2)c2nc(-c3ccc(F)cc3)[nH]c2n1 [Example 404, (4-(2-amino-8-(4-fluorophenyl)-9H-purin-6-yl)piperazin-1-yl)(4-chlorophenyl)methanone] | > 10000 |
| Nc1nc(N2CCN(C(=O)COc3ccc(OC(F)(F)F)cc3)CC2)c2nc(-c3cccnc3)sc2n1 [Example 273, 1-(4-(5-amino-2-(pyridin-3-yl)thiazolo[5,4-d]pyrimidin-7-yl)piperazin-1-yl)-2-(4-trifluoromethoxyphenoxy)ethanone] | 45 |
| Nc1nc(N2CCN(C(=O)COc3cccc(Cl)c3)CC2)c2nc(CCc3ccc(F)cc3)sc2n1 [Example 228, 1-(4-(5-amino-2-(4-fluorophenethyl)thiazolo[5,4-d]pyrimidin-7-yl)piperazin-1-yl)-2-(3-chlorophenoxy)ethanone] | 1720 |
| Cc1cccc(NC(=O)N2CCN(c3nc(N)nc4sc(-c5cccnc5)nc34)CC2)c1 [Example 276, 4-(5-amino-2-(pyridin-3-yl)thiazolo[5,4-d]pyrimidin-7-yl)-N-m-tolylpiperazine-1-carboxamide] | 1 |
| Nc1nc(N2CCN(C(=O)Nc3ccc(F)cc3F)CC2)c2nc(-c3ccc(F)cc3)sc2n1 [Example 217, 4-(5-amino-2-(4-fluorophenyl)thiazolo[5,4-d]pyrimidin-7-yl)-N-(2,4-difluorophenyl)piperazine-1-carboxamide] | 345 |
| Nc1nc(N2CCN(C(=O)COc3ccc(Cl)cc3)CC2)c2cc(-c3ccc(F)cc3)sc2n1 [Example 326, 1-(4-(2-amino-6-(4-fluorophenyl)thieno[2,3-d]pyrimidin-4-yl)piperazin-1-yl)-2-(4-chlorophenoxy)ethanone] | 700 |
| O=C(COc1ccc(Cl)cc1)N1CCN(c2ncnc3sc(-c4ccc(F)cc4)cc23)CC1 [Example 312, 2-(4-chlorophenoxy)-1-(4-(6-(4-fluorophenyl)thieno[2,3-d]pyrimidin-4-yl)piperazin-1-yl)ethanone] | 6350 |
| Nc1nc(N2CCN(C(=O)COc3ccc(F)cc3)CC2)c2nc(-c3ccc(F)cc3)sc2n1 [Example 233, 1-(4-(5-amino-2-(4-fluorophenyl)thiazolo[5,4-d]pyrimidin-7-yl)piperazin-1-yl)-2-(4-fluorophenoxy)ethanone] | 74 |
| Nc1nc(N2CCN(C(=O)COc3ccc(Cl)cc3Cl)CC2)c2nc(-c3ccc(F)cc3)sc2n1 [Example 212, 1-(4-(5-amino-2-(4-fluorophenyl)thiazolo[5,4-d]pyrimidin-7-yl)piperazin-1-yl)-2-(2,4-dichlorophenoxy)ethanone] | 375 |
| Cc1cccc(NC(=O)N2CCN(c3nc(N)nc4sc(-c5ccccc5)cc34)CC2)c1 [Example 330, 4-(2-amino-6-phenylthieno[2,3-d]pyrimidin-4-yl)-N-m-tolylpiperazine-1-carboxamide] | 930 |
| COc1cccc(-c2nc3c(N4CCN(C(=O)COc5ccc(Cl)cc5)CC4)nc(N)nc3s2)c1 [Example 124, 5-amino-7-[4-(4-chlorophenoxyacetyl)piperazin-1-yl]-2-(3-methoxyphenyl)thiazolo[5,4-d]pyrimidine] | 120 |
| Nc1nc(N2CCN(C(=O)COc3ccc(Cl)cc3)CC2)c2nc(C3(c4ccc(Cl)cc4)CC3)sc2n1 [Example 117, 5-amino-7-[4-(4-chlorophenoxyacetyl)piperazin-1-yl]-2-(1-(4-chlorophenyl)cyclopropyl)thiazolo[5,4-d]pyrimidine] | 2510 |
| Cc1cccc(OCC(=O)N2CCN(c3nc(N)nc4sc(-c5ccco5)nc34)CC2)c1 [Example 210, 1-(4-(5-amino-2-(furan-2-yl)thiazolo[5,4-d]pyrimidin-7-yl)piperazin-1-yl)-2-(m-tolyloxy)ethanone] | 72 |

Same assay, conditions: lowest concentration giving 50% inhibition of the MLR; 6 days coculture, 3H-thymidine incorporation

| Compound | IC50 [nM] |
| --- | --- |
| Nc1nc(N2CCN(C(=O)COc3ccc(Cl)cc3)CC2)c2nc(-c3ccc[n+]([O-])c3)sc2n1 [Example 121b, 5-amino-7-[4-(4-chlorophenoxyacetyl)piperazin-1-yl]-2-(N-oxopyridine-3-yl)thiazolo[5,4-d]pyrimidine] | 830 |
